Patent publication US20200289482A1, “CYSTIC FIBROSIS TRANSMEMBRANE CONDUCTANCE REGULATOR MODULATORS FOR TREATING AUTOSOMAL DOMINANT POLYCYSTIC KIDNEY DISEASE” (The Johns Hopkins University, priority 2017, published 2020)

Key:
Hsp27 [1] = experiment: Western blot of Hsp27 in kidney tissue lysates; type: in vivo, mouse; details: cyst induced pkd−/− mice, VX-809 30 mg/kg BW
Procedure: FIG. 7A, FIG. 7B, FIG. 7C, FIG. 7D, FIG. 7E, and FIG. 7F show chaperone expression is altered in mice by VX-809. (FIG. 7A-FIG. 7B) Representative Western blot images of HSP27, 70, 90 and HSP40 in lysates of kidney tissue from no cyst induced (ND), cyst induced with Doxycycline (D) or cyst induced pkd−/− mice treated with VX-809 (D+VX-809) 30 mg/kg BW. (FIG. 7C, FIG. 7D, FIG. 7E, and FIG. 7F) Columns represent averages±standard errors of HSP27, 70, 90 and HSP40 expression. Data were analyzed by non-parametric t-test. n=4 for each treated and control groups. Black lines between lanes represent representative experiments from the same gel. *P<0.05; **P<0.01; To facilitate their growth in the kidney, cysts have developed an altered network of proteins that most likely serves to protect them from stress (34). Next, it was determined whether VX-809 would alter the levels of Hsps in pkd−/− mice and in PN cells. […] Hsp 27, 70 and 90 are all elevated in cystic kidneys compared to normal controls. […] There is no change in Hsp 40. […] Both sets of data are consistent with an alteration in the heat shock response to cyst growth.

Hsp27 [2] = experiment: Western blot of Hsp27 in PN cells; type: cell-based, mouse; details: VX-809 10 μM 16 h
Procedure: (§1) FIG. 8A, FIG. 8B, FIG. 8C, FIG. 8D, FIG. 8E, FIG. 8F, FIG. 8G, and FIG. 8H show chaperone expression is altered in PH and PN cells by VX-809. (FIG. 8A) Western blot showing expression of HSP27, 70 and HSP 90 in VX-809 treated or control PN cells. […] (FIG. 8E). Western blot of HSP27, 70 and 90 in PH vs. PN cells. […] Whereas, Hsp70 is higher in PH vs. PN cells. Data were analyzed by non-parametric t test. Experiment was repeated 4-5 times. Cells were grown in 10-cm culture dishes at permissive conditions (33° C.) with γ-interferon in culture media. Cells were then transferred to non-permissive conditions at 37° C., γ-interferon free culture media and evaluated at full confluence. At day four, cells were treated with VX-809 (10 μM) for 16 h and harvested on fifth day for assay. *P<0.05., **P<0.01, ***P<0.001, ****P<0.0001; To facilitate their growth in the kidney, cysts have developed an altered network of proteins that most likely serves to protect them from stress (34). Next, it was determined whether VX-809 would alter the levels of Hsps in pkd−/− mice and in PN cells. […] Hsp 27, 70 and 90 are all elevated in cystic kidneys compared to normal controls. […] There is no change in Hsp 40. […] Both sets of data are consistent with an alteration in the heat shock response to cyst growth.

Hsp70 = experiment: Western blot of Hsp70 in PN cells; type: cell-based, mouse; details: VX-809 10 μM 16 h
Procedure: as §1

Hsp90 = experiment: Western blot of Hsp90 in PN cells; type: cell-based, mouse; details: VX-809 10 μM 16 h
Procedure: as §1

Ero1 = experiment: Western blot of ER stress marker Ero1 in kidney tissue; type: in vivo, mouse; details: cyst induced pkd−/− mice, VX-809 30 mg/kg BW
Procedure: (§2) FIG. 11A. FIG. 11B, FIG. 11C, FIG. 11D, and FIG. 11E show expression of ER stress markers GRP78, ErO1, and GADD in Pkd1^−/− mice treated with VX-809. (FIG. 11A & FIG. 11D) Representative Western blot images of GRP78, ErO1, and GADD in lysates of kidney tissue from no cyst induced (ND), cyst induced with doxycycline (D) or cyst induced pkd−/− mice treated with VX-809 (D+VX-809) 30 mg/kg BW. (FIG. 11B, FIG. 11C and FIG. 11E) Columns represent averages±standard errors of GRP78, ErO1, and GADD153 expression. Data were analyzed by non-parametric t-test. n=4 for each treated and control groups. Black lines between lanes represent representative experiments from the same gel but loaded in different lanes. **P<0.01, ***P<0.001;
(§3) Given that VX-809 alters an ensemble of Hsps, it was evaluated whether VX-809 alters proteins associated with ER stress. To address this question, the levels of three ER stress-associated proteins were measured, 78-kDa glucose-regulated protein (GRP78), ER oxidoreductin 1 (Ero1) and DNA damage-inducible protein 3 (GADD153), also known as C/EBP homologous protein (CHOP) (37). The results are depicted in FIG. 11 show no changes in GRP78 or Ero1 in response to VX-809.

GADD153 = experiment: Western blot of ER stress marker GADD153 in kidney tissue; type: in vivo, mouse; details: cyst containing mice, VX-809 30 mg/kg BW
Procedure: as §2, §3

CFTR = CFTR (Mus musculus, UniProt P26361); experiment: Confocal microscopy localization of CFTR; type: cell-based; design: endogenous in cells; details: VX-809 treated vs control cells; ER, Golgi and PM markers
Sequence of CFTR (P26361 whole entry): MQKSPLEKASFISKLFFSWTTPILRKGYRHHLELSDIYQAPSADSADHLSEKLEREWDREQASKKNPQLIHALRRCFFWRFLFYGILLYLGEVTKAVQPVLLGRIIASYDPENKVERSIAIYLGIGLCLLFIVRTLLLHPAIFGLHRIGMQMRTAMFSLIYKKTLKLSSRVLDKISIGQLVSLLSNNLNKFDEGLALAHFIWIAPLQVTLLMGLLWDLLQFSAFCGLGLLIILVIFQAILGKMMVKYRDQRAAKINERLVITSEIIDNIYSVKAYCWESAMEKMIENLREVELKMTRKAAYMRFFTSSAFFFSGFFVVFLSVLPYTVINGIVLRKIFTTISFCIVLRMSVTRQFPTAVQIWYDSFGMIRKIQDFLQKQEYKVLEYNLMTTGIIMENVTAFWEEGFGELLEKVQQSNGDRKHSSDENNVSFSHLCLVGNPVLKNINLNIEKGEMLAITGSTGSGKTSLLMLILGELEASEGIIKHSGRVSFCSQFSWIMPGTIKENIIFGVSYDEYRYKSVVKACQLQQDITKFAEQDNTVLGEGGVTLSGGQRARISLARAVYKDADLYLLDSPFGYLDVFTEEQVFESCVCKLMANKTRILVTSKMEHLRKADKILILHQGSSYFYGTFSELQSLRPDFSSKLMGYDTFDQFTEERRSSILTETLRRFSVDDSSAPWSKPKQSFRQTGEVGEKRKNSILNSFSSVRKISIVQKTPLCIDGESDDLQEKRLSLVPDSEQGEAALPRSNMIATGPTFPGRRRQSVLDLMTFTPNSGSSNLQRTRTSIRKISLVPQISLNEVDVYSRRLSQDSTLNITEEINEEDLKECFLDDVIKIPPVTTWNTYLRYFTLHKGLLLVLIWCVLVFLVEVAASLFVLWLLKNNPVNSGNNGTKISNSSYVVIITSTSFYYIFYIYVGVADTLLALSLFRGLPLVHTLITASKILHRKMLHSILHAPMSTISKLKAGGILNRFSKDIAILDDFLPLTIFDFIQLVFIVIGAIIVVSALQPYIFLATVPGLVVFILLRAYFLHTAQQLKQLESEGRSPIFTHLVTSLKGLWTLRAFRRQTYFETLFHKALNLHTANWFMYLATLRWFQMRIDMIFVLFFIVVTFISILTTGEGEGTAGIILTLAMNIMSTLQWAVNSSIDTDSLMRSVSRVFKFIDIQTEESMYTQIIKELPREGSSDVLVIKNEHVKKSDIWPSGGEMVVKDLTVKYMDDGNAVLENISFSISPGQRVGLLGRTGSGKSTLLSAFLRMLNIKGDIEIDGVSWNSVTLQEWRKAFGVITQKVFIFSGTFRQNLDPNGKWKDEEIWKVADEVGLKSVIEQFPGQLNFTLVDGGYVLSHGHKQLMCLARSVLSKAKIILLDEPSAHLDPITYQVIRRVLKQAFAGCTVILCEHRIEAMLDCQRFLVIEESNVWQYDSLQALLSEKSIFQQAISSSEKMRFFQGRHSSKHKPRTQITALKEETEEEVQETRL
From the text: FIG. 18A and FIG. 18B show images of confocal microscopy localization studies of CFTR and localization markers in control and treated cells (FIG. 18A) and graphs showing Pearson's correlation coefficient for CFTR and localization markers in control and VX-809 treated cells (FIG. 18B).
The localization of PC2 and CFTR in control cells was compared to the localization of PC2 and CFTR localization in VX-809 treated cells.

lumacaftor [VX-809]
Hsp27 expression in kidneys (Hsp27 [1]): significantly less expression
Hsp27 expression in PN cells (Hsp27 [2]): reduced expression
Hsp70 expression in PN cells (Hsp70): reduced expression
Hsp90 expression in PN cells (Hsp90): reduced expression
Ero1 expression (Ero1): no changes
GADD153 expression (Western blot) (GADD153): equally dramatic reduction in GADD153
localization of CFTR (CFTR): statistically significant move of CFTR from the ER to Basolateral and Apical Membrane
